Source: the NIST ThermoML archive (doi:10.1021/acs.jced.7b00335)
± gives the expanded uncertainty stated by the source.

What was measured:
[1] = xn = mol fraction of the nth substance listed; conditions: 100 kPa, Liquid, x2 = 0; for viscosity: Concentric cylinders viscometry; for mass density: Vibrating tube method
[2] = 100 kPa, Liquid; for viscosity: Concentric cylinders viscometry; for mass density: Vibrating tube method

SMILES	viscosity ([1]; 293.15 K) [mPa·s]	mass density ([1]; 293.15 K) [kg/m3]	viscosity ([1]; 298.15 K) [mPa·s]	mass density ([1]; 298.15 K) [kg/m3]	viscosity ([1]; 303.15 K) [mPa·s]	mass density ([1]; 303.15 K) [kg/m3]	viscosity ([2]; 293.15 K) [mPa·s]	mass density ([2]; 293.15 K) [kg/m3]	viscosity ([2]; 298.15 K) [mPa·s]	mass density ([2]; 298.15 K) [kg/m3]	viscosity ([2]; 303.15 K) [mPa·s]	mass density ([2]; 303.15 K) [kg/m3]	viscosity ([2]; 308.15 K) [mPa·s]	mass density ([2]; 308.15 K) [kg/m3]	viscosity ([2]; 313.15 K) [mPa·s]	mass density ([2]; 313.15 K) [kg/m3]	viscosity ([2]; 318.15 K) [mPa·s]	mass density ([2]; 318.15 K) [kg/m3]	viscosity ([2]; 323.15 K) [mPa·s]	mass density ([2]; 323.15 K) [kg/m3]	also measured
CCC(C)O (stereo not drawn) [butan-2-ol] + O=Cc1ccccc1	3.67 ± 0.15	806.7 ± 1	3.04 ± 0.12	802.7 ± 1	2.54 ± 0.1	798.4 ± 1	–	–	–	–	–	–	–	–	–	–	–	–	–	–	viscosity ([1]; 308.15 K): 2.13 ± 0.09 mPa·s; mass density ([1]; 308.15 K): 794.1 ± 1 kg/m3; viscosity ([1]; 313.15 K): 1.8 ± 0.07 mPa·s; mass density ([1]; 313.15 K): 789.8 ± 1 kg/m3; viscosity ([1]; 318.15 K): 1.54 ± 0.06 mPa·s; mass density ([1]; 318.15 K): 785.2 ± 1 kg/m3; viscosity ([1]; 323.15 K): 1.33 ± 0.05 mPa·s; mass density ([1]; 323.15 K): 780.6 ± 1 kg/m3
O=Cc1ccccc1 [benzaldehyde]	–	–	–	–	–	–	1.52 ± 0.06	1046.3 ± 1	1.41 ± 0.06	1041.7 ± 1	1.31 ± 0.05	1037.1 ± 1	1.22 ± 0.05	1032.4 ± 1	1.15 ± 0.05	1027.9 ± 1	1.09 ± 0.04	1023.4 ± 1	1.03 ± 0.04	1019.1 ± 1	–
CCCC(C)O (stereo not drawn) [pentan-2-ol] + O=Cc1ccccc1	3.97 ± 0.16	809.3 ± 1	3.32 ± 0.13	805.3 ± 1	2.81 ± 0.11	801.2 ± 1	–	–	–	–	–	–	–	–	–	–	–	–	–	–	viscosity ([1]; 308.15 K): 2.37 ± 0.1 mPa·s; mass density ([1]; 308.15 K): 797 ± 1 kg/m3; viscosity ([1]; 313.15 K): 1.99 ± 0.08 mPa·s; mass density ([1]; 313.15 K): 792.7 ± 1 kg/m3; viscosity ([1]; 318.15 K): 1.66 ± 0.07 mPa·s; mass density ([1]; 318.15 K): 788.4 ± 1 kg/m3; viscosity ([1]; 323.15 K): 1.39 ± 0.06 mPa·s; mass density ([1]; 323.15 K): 784 ± 1 kg/m3
CCCC(C)O (stereo not drawn) [pentan-2-ol]	–	–	–	–	–	–	3.97 ± 0.16	809.3 ± 1	3.32 ± 0.13	805.3 ± 1	2.81 ± 0.11	801.2 ± 1	2.37 ± 0.1	797 ± 1	1.99 ± 0.08	792.7 ± 1	1.66 ± 0.07	788.4 ± 1	1.39 ± 0.06	784 ± 1	–
CCC(C)O (stereo not drawn) [butan-2-ol]	–	–	–	–	–	–	3.67 ± 0.15	806.7 ± 1	3.04 ± 0.12	802.7 ± 1	2.54 ± 0.1	798.4 ± 1	2.13 ± 0.09	794.1 ± 1	1.8 ± 0.07	789.8 ± 1	1.54 ± 0.06	785.2 ± 1	1.33 ± 0.05	780.6 ± 1	–
CC(C)O [propan-2-ol]	–	–	–	–	–	–	2.42 ± 0.1	785.4 ± 1	2.08 ± 0.08	781.1 ± 1	1.8 ± 0.07	776.8 ± 1	1.56 ± 0.06	772.4 ± 1	1.36 ± 0.06	768 ± 1	1.19 ± 0.05	763.4 ± 1	1.05 ± 0.04	758.8 ± 1	–
CC(C)O [propan-2-ol] + O=Cc1ccccc1	2.42 ± 0.1	785.4 ± 1	2.08 ± 0.08	781.1 ± 1	1.8 ± 0.07	776.8 ± 1	–	–	–	–	–	–	–	–	–	–	–	–	–	–	viscosity ([1]; 308.15 K): 1.56 ± 0.06 mPa·s; mass density ([1]; 308.15 K): 772.4 ± 1 kg/m3; viscosity ([1]; 313.15 K): 1.36 ± 0.06 mPa·s; mass density ([1]; 313.15 K): 768 ± 1 kg/m3; viscosity ([1]; 318.15 K): 1.19 ± 0.05 mPa·s; mass density ([1]; 318.15 K): 763.4 ± 1 kg/m3; viscosity ([1]; 323.15 K): 1.05 ± 0.04 mPa·s; mass density ([1]; 323.15 K): 758.8 ± 1 kg/m3
